Data reported in US7098024B2, “Depsipeptide compound” (Astellas Pharma Inc., priority 1999, dated 2006).

Key:
Assay type in all cases: cell-based
HeLa S3 cells = assay: Measurement of cytotoxic activity for human cancer cells (1), Cell Counting Kit; details: 72 h, cultured 3 days, read-out: IC50 value, cytotoxic activity (growth inhibition) for HeLa S3 cells
Procedure: Measurement of cytotoxic activity for human cancer cells (1)
HeLa S3 cells adjusted to a density of 6×10^4 cells/ml were dispensed in 200 μl portions, and various concentrations of the compound A and compound B respectively in 4 μl portions, into a 96 well test plate, and cultured at 37° C. for 3 days in a CO2 incubator. After the culturing, the degree of cell growth was measured using Cell Counting Kit (mfd. by DOJINDO), and the growth inhibition ratio at each concentration was obtained to calculate the IC50 value.

[1] = tested on: human prostate cancer DU-145 cells; assay: Measurement of cytotoxic activity for human cancer cells (2), Sulforhodamine B, DU-145; details: 72 hours
Procedure: (§1) Measurement of cytotoxic activity for human cancer cells (2)
(§2) Human colon cancer WiDr cells adjusted to a density of 6×10^4 cells/ml, human non-small cell lung carcinoma A549 cells adjusted to a density of 4×10^4 cells/ml or human prostate cancer DU-145 cells adjusted to a density of 6×10^4 cells/ml were dispensed into a 96 well test plate and cultured at 37° C. in a CO2 incubator. After 24 hours, varied concentration of the compound A, compound B or compound C was dispensed in 100 μl portions, and the cells were cultured at 37° C. for additional 72 hours in a CO2 incubator. After the culturing, the number of cells was determined using Sulforhodamine B, and the IC50 value of each compound for cell growth was calculated.

[2] = tested on: human non-small cell lung carcinoma A549 cells; assay: Measurement of cytotoxic activity for human cancer cells (2), Sulforhodamine B, A549; details: 72 hours; for IC50: Homo sapiens, read-out: IC50 value for cell growth, A549 cells
Procedure: as §1, §2

[3] = tested on: Human colon cancer WiDr cells; assay: Measurement of cytotoxic activity for human cancer cells (2), Sulforhodamine B, WiDr; details: 72 hours
Procedure: as §1, §2

[4] = tested on: PAI-1 promoter gene expression in mink lung epithelial cells (MvlLu); assay: Measurement of TGF-β like activity, PAI-1 promoter luciferase reporter
Text: Measurement of TGF-β like activity
In order to detect the TGF-β like activity, a screening system was constructed making use of the expression of a reporter gene. A fluorescent luciferase gene was transfected into downstream of the PAI-1 promoter gene of mink lung epithelial cells (MvlLu). in which expression of […] (PAI-1) is induced by TGF-β due to excess expression of TGF-β receptor (Journal of Biological Chemistxy, vol. 262, pp. 17467–17414, 1987), (Analytical Biochemistry, vol. 216, pp. 276–284, 1994).
Using the above cells, the luminous intensity obtained by adding each compound was used as the index of TGF-β like activity.

| Compound | IC50 (HeLa S3 cells) [µM] | cell growth inhibition activity for DU-145 cells [1] | cell growth inhibition activity for A549 cells [2] | IC50 [2] [µM] | cell growth inhibition activity for WiDr cells [3] | luminous intensity induced by the expression of PAI-1 promoter gene [4] |
| --- | --- | --- | --- | --- | --- | --- |
| CCC(C)C1NC(=O)C2CSSCC/C=C/C(CC(=O)NC(C)C(=O)N2)OC(=O)CC1O (stereo not drawn) [Compound B] | 1.2 | excellent cell growth inhibition activity | excellent cell growth inhibition activity | ≤ 0.005 | excellent cell growth inhibition activity | – |
| CC1NC(=O)CC2/C=C/CCSSCC(NC1=O)C(=O)NC(C(C)C)C(O)CC(=O)O2 (stereo not drawn) [Compound A] | 1.6 | excellent cell growth inhibition activity | excellent cell growth inhibition activity | ≤ 0.005 | excellent cell growth inhibition activity | – |
| TGF-β | – | – | – | – | – | increased the luminous intensity |
| CC(C)CC1NC(=O)C2CSSCC/C=C/C(CC(=O)NC(C)C(=O)N2)OC(=O)CC1O (stereo not drawn) [Compound C] | – | excellent cell growth inhibition activity | excellent cell growth inhibition activity | ≤ 0.005 | excellent cell growth inhibition activity | – |
